Measured values reported in patent publication US8273340B2, “Methods and compositions for attracting or repelling cockroaches” (The United States of America, as represented by the …, priority 2008, dated 2012).
Marks after values point to notes of the source that are not given here.

Experiments:
cockroach = assay: Bioassays for cockroach attraction of attractants sorbed into thermoplastic polymers; format: in vivo
Excerpt: To alleviate the reactivity with the carrier polymers, we attempted to load active compounds into a series of thermoplastic polymers including urethanes and synthetic rubbers, based on the behavior of the active compounds as plasticizers. […] Propyl propanoate, methyl hexanoate, and methyl tiglate were loaded into a series of thermoplastic granulated feed materials, including 4-(1,1,3,3-tetramethylbutyl) with ethylene-5-ethylidenebicyclo[2.2.1]hept-2-ene-propene thermoplastic synthetic rubber (Santopren™ 203-40). Santoprene™ is a thermoplastic elastomer (TPE that is a mixture of in-situ cross linking of EPDM rubber and polypropylene compounds). Because of the longer life of Santopren™ in both extreme hot and cold environments, it is often preferred over the use of rubber. Pellethane™ 2102-55D is a polyester polycaprolactone polyurethane. Methyl hexanoate and methyl tiglate were sorbed using heat and pressure (60° C., 40 psi, 30 min) into the Santoprene® and were effective in bioassays for cockroach attraction. […] Loading rates of active compounds into the Santoprene®, using slightly elevated temperature (60° C.) and 40 psi pressure, were 8-12% by wt for the two compounds.

[1] = test system: German roaches (B. germanica); assay: Two-harborage arena bioassay of sustained release polymer formulations; format: in vivo; conditions: counted after 24 hours
Excerpt: Evaluation of sustained release formulations: Three cockroach attractants (methyl tiglate, butyl heptanoate, and propyl proprionate) were formulated in one or more polymer formulations (Urethane, Pellethane, Santoprene, and/or Polyethylene) as indicated in Table 4.A sweater box (1.5×2.0×0.5 ft) provided the test arena. The sides of the arena were coated with a blend of mineral oil and Vaseline petroleum jelly. The tops of two 8 oz paper ice cream cups were tapped to the arena floor with masking tape and, prior to the addition of the test cockroaches, inverted cups without holes were fixed to the tapped lids. Twenty-five laboratory reared late stage nymphs or adult male German roaches (B. germanica), starved for 72 hrs, were added to the arena and allowed to calm down (ca. 1 hour). The starting inverted ice cream cups were carefully removed and each ice cream cup top was then supplied with a water tube (1.5 ml scintillation vial with water and stoppered with cotton), one lab chew food pellet, and either a test attractant polymer formulation or the corresponding polymer blank control. […] The cups were oriented so that the holes were facing each other. The number of roaches that sought harborage in the cups was counted after 24 hours by plugging the entrance holes with cotton, the roaches inside euthanized, and the numbers in each cup counted.

[2] = Release rate of attractants from sustained release delivery systems; format: physicochemical
Excerpt: Several secondary release rate control systems were developed. The first was a sachet that can contain the above polymer releasing system. This sachet can be either polyvinylidine chloride (PvdC) barrier film (e.g., Saranex™) enclosed in a thermally sealed metalized polyethylene container to eliminate release of active compounds, or a metalized polyethylene sachet with a removable seal that covers a vapor diffusion controlling orifice which when removed begins the release process from the internal polymer/carrier, or metalized polyethylene sachet which contains a small vial with a vapor controlling orifice. In the case of the Saranex™ sachet, the actual porosity of the Saranex™ control release is based on type of PVdC and thickness of the film. In the case of the metalized polyethylene sachet and internal polymer/carrier, a specific orifice size controlled the rate of diffusion of the active from the device, as shown in FIG. 4. An additional means of containing and reducing the release of the liquid active compounds and providing a solid support for use in the above delivery system involved sorbing the active compounds into an inert absorbent such as Membrana GmbH's expanded microporous polyolefin Accurel® MP100 which are granular or pelletized polyethylenes that have 10-50 μm air pockets throughout and can contain up to 90% of their volume in active compounds . MP100 was easily loaded with 80% by wt active ingredient due to its porosity. […] Thus, placement into the metalized polyethylene sachet with its diffusion regulating orifice was required.
Active compounds (1 gm active in Accurel® MP100) were sealed within the metalized polyethylene sachet, and a 0.5 mm hole placed into the film, and sealed until use with a metalized tape. Release rates for propyl propanoate, methyl tiglate, and butyl hexanoate were calculated at 15.5, 11.4, and 4.8 mg/day, respectively. Longevity of this system was calculated to be 64, 87, and 208 days, respectively.
Release rates for the thermoset urethane (Flexane® 80P) and synthetic rubbers systems ranged from 0.055 to 0.2 mg/cm^2/day, depending on durometer/hardness that is a measure of polymer crosslinking. Best results were obtained at durometer/hardness levels above D30. Release rates for the Saranex system without the release control provided by the metalized polyethylene and diffusion control orifice were 187, 236, and 7 mg/day for propyl propanoate, methyl tiglate, and butyl hexanoate, respectively.

[3] = test system: Male cockroaches (Blattela germanica); assay: Y-tube olfactometer bioassay, test compound in mineral oil on filter paper; format: in vivo; conditions: for Percent Response: 0.5% w/v solution in mineral oil, mean of 3 replicates, 65% or more = significantly attractive (*), 35% or less = significantly repellent (**)
Excerpt: The German cockroach (Blattela germanica) is one of the most difficult cockroach species to control in homes and was used to illustrate the invention. […] Since the cockroaches never contact the test sample, their response is strictly to the molecules in the air stream.
Olfactometer Bioassay: The Y-tube bioassay apparatus was similar to that described by Vander Meer et al. (J. Chem. Ecol., 14: 825-838 (1988)). Compressed air (breathing-air quality) was passed into the two choice arms at 0.2 l/min for a total flow of 0.4 l/min. Flow rates were adjusted and controlled by two flow meters (Omega Engineering, Inc.). All tubing carrying the air was either copper or Teflon. Prior to evaluating treatment samples, a positive standard was put through the bioassay procedure. […] Test samples (10.0 μl) and the solvent blank (mineral oil, 10.0 μl) were applied to filter paper strips (0.3×1.0 cm, Whatman No. 1) and then each was placed into one of the two choice arms. Male cockroaches (Blattela germanica) were prepared for their introduction into the olfactometer by placing them in a Teflon tube (3 cm×0.8 cm) that had one end blocked with a piece of copper mesh screen. The open end of tube was closed with a lightly attached piece of tape. The cockroaches were introduced individually by removing the tape and quickly inserting the Teflon tube into the entrance arm of the olfactometer. […] The initial choice of the cockroach was recorded. The cockroach was removed and the process was repeated 10 times with the same test and blank samples. The 10 choices usually required less than 5 minutes to complete. After each set of 10 cockroaches had made their choice, the olfactometer was rinsed with acetone, dried, and reassembled for the next test. Each sample was retested with the same cockroaches, but with the sample and control in reverse positions. The sum of the results from the two tests represented one replicate. This procedure minimized bias inherent in the apparatus. A null hypothesis of equal numbers of cockroaches in each arm was tested with chi-square analysis. […] Results in-between were neutral.
The diameter of the Y part of the olfactometer provided a close fit for the cockroach, thus keeping it in the center of the walkway.

[4] = sorbed into Santoprene (60° C., 40 psi, 30 min)
[5] = 1 gm active in Accurel MP100 in metalized polyethylene sachet with 0.5 mm hole
[6] = 1 gm active in Accurel MP100 in metalized polyethylene sachet with 0.5 mm hole, FIG. 3
[7] = Saranex system without metalized polyethylene and diffusion control orifice

Row | SMILES | effect in bioassays for cockroach attraction (in words) (cockroach; loaded into Dow Pellethane) | effect in bioassays for cockroach attraction (in words) (cockroach; [4]) | attraction to treatment harborage versus polymer blank control (in words) ([1]; formulated in urethane) | Longevity of the release system [2, 5] [days] | Release rate [2, 6] [mg/day] | Release rate [2, 7] [mg/day] | Percent Response [3] | attraction to treatment harborage versus polymer blank control (in words) ([1]; formulated with Santoprene) | percent of responding cockroaches attracted ([3]; three concentrations (0.25 to 0.75) in mineral oil, N=1, FIG. 8) [%]
1 | CCCOC(=O)CC [Propyl Propanoate] | neither of these systems worked well | neither of these systems worked well | significant attraction and subsequent aggregation | 64 | 15.5 | 187 | 70.0* % | – | –
2 | C/C=C(\C)C(=O)OC [methyl tiglate, methyl ester of tiglic acid (trans-2-methyl-2-butenoic acid (methyl tiglate))] | worked less well | effective | – | 87 | 11.4 | 236 | 80.0% | significant attraction and aggregation | ≥ 65
